Measurements as given in patent US20240254143A1, “OREXIN RECEPTOR AGONISTS AND USES THEREOF” (JAZZ PHARMACEUTICALS IRELAND LIMITED, priority 2021, published 2024).

Each compound was assayed against T1, human recombinant OX2 (hOX2) receptor (Homo sapiens, UniProt O43614) (assay: IP-1 accumulation assay (IP-One HTRF) in hOX2-CHO cells). Conditions: 60 min at 37° C., mean of at least two independent experiments, read-out: EC50_OX2R Category.
T1 construct: host or cells: CHO cells
T1 sequence (O43614 1-444): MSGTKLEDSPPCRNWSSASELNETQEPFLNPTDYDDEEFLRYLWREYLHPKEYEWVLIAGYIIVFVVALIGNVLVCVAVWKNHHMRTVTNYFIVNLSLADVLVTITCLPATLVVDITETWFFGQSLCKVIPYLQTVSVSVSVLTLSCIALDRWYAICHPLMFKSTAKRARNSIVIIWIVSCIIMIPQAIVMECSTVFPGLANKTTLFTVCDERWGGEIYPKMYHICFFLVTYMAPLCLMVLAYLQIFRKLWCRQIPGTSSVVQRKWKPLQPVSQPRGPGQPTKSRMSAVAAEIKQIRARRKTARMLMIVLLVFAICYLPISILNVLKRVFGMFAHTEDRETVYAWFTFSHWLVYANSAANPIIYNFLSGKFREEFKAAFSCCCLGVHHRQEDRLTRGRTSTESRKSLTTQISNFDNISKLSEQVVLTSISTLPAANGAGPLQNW
Format: cell-based
Method: Example 94: IP-1 Accumulation Assay
The accumulation of Inositol-1 Monophosphate (IP-1) was measured using IP-One HTRF® Terbium cryptate based assay (Cisbio) in human recombinant OX1 (hOX1) and at OX2 (hOX2) receptors expressed in CHO cells (DiscoverX) according to the manufacturer's instructions for cells tested in suspension.
hOX1-CHO and hOX2-CHO cells were seeded into white 384-well plates at a density of 20,000 cells/well in Hank's Balanced Salt Solution (HBSS) containing 20 mM HEPES pH 7.4, 50 mM, LiCl and 0.1% and Bovine Serum Albumin (BSA).
Compounds of the present disclosure were tested in a 11 points concentration response curve (CRC) serially diluted in neat DMSO at 200 fold concentrations and added by Echo acoustic liquid handling (Labcyte) to the cells (0.5% DMSO final in the assay). After 60 min of incubation at 37° C. detection reagents, IP1-d2 tracer and anti-IP1-cryptate were diluted in lysis buffer according to the manufacturer's descriptions and added to the cells.
Following 60 mi incubation at room temperature, time-resolved fluorescence (HTRF) was measured at 615 nm and 665 nm by Envision Multilabel reader (Perkin Elmer) and the HTRF ratio (A665/A615×10^4) was calculated.
The IP-1 accumulation response was expressed as percentage of the maximal OX-A response.
Curve fitting and EC50 estimations were carried out using a four-parameter logistic model using XLfit Software. Mean data of EC50 are calculated from at least two independent experiments performed in duplicates.

| EC50 [nM] | SMILES |
| --- | --- |
| > 10000 | CN1CCC2(CCCN(C(=O)OCC(F)F)C2CO[C@H]2CC[C@@H](c3ccccc3)CC2)NC1=O (mixture of isomers) [Example 57, 2,2-difluoroethyl-rel-(6R,7R)-3-methyl-2-oxo-7-({[(CIS)-4-phenylcyclohexyl]oxy}methyl)-1,3,8-triazaspiro [5.5]undecane-8-carboxylate] |
| 100 to 1000 | CCN(C)C(=O)N1[C@H](C)C[C@@]2(COCC(=O)N2)[C@@H]1Cc1cccc(-c2cc(F)cc(F)c2)c1F [Example 87, (1S,3R,5S)-N-ethyl-N,3-dimethyl-7-oxo-1-({2,3′,5′-trifluoro-[1,1′-biphenyl]-3-yl}methyl)-9-oxa-2,6-diazaspiro[4.5]decane-2-carboxamide] |
| < 100 | C[C@@H]1C[C@@]2(COCC(=O)N2)[C@H](CO[C@H]2CC[C@@H](c3ccccc3)CC2)N1C(=O)OCC(F)F [Example 61, 2,2-difluoroethyl (1R,3R,5S)-3-methyl-7-oxo-1-({[(CIS)-4-phenylcyclohexyl]oxy}methyl)-9-oxa-2,6-diazaspiro [4.5]decane-2-carboxylate] |
| < 100 | CCNC(=O)N1CCCC2(CCOC(=O)N2)C1CO[C@H]1CC[C@@H](c2ccccc2)CC1 (stereo partly drawn) [Example 11, (CIS)-N-ethyl-2-oxo-7-({[(CIS)-4-phenylcyclohexyl]oxy}methyl)-3-oxa-1,8-diazaspiro[5.5]undecane-8-carboxamide] |
| < 100 | CCNC(=O)N1CCC[C@@]2(COC(F)C(=O)N2)[C@@H]1CO[C@H]1CC[C@@H](c2ccccc2)CC1 (single isomer, unassigned) [Example 43] |
| < 100 | CCNC(=O)N1CCC[C@@]2(COCCC(=O)N2)[C@@H]1CO[C@H]1CC[C@@H](c2ccccc2)CC1 (relative stereo) [Example 55, rel-(1R,6S)-N-ethyl-8-oxo-1-({[(CIS)-4-phenylcyclohexyl]oxy}methyl)-11-oxa-2,7-diazaspiro[5.6]dodecane-2-carboxamide] |
| 1000 to 10000 | CCNC(=O)N1CCCC2(COC(=O)N2)C1CO[C@H]1CC[C@@H](c2ccccc2)CC1 (mixture of isomers) [Example 10] |
| 1000 to 10000 | C[C@@H]1C[C@@]2(COCC(=O)N2)[C@H](CO[C@H]2CC[C@@H](c3ccccc3)CC2)N1C(=O)C12CC(C1)C2 [Example 60, (1R,3R,5S)-2-{bicyclo[1.1.1]pentane-1-carbonyl}-3-methyl-1-({[(CIS)-4-phenylcyclohexyl]oxy}methyl)-9-oxa-2,6-diazaspiro[4.5]decan-7-one] |
| 1000 to 10000 | CCNC(=O)N1C[C@@H](C)C2(COCC(=O)N2)C1Cc1cccc(-c2cc(F)cc(F)c2)c1F (mixture of isomers) [Example 70, rel-(1S,5S)-(4S)-N-ethyl-4-methyl-7-oxo-1-({2,3′,5′-trifluoro-[1,1′-biphenyl]-3-yl}methyl)-9-oxa-2,6-diazaspiro[4.5]decane-2-carboxamide] |
| > 10000 | COC(=O)N1CCC[C@@]2(CCOC(=O)N2)[C@H]1Cc1cccc(-c2ccccc2)c1 (single isomer, unassigned) [Example 23] |
| < 100 | C[C@@H]1C[C@@]2(COCC(=O)N2)[C@H](Cc2cccc(-c3cc(F)cc(F)c3)c2F)N1C(=O)C1CCC1 [Example 81, (1S,3R,5S)-2-cyclobutanecarbonyl-3-methyl-1-({2,3′,5′-trifluoro-[1,1′-biphenyl]-3-yl}methyl)-9-oxa-2,6-diazaspiro[4.5]decan-7-one] |
| 1000 to 10000 | O=C1N[C@]2(CCN(C(=O)OCC(F)F)[C@H]2Cc2cccc(-c3cc(F)cc(F)c3)c2F)COC1F (single isomer, unassigned) [Example 74] |
| 100 to 1000 | O=C1COC[C@@]2(CCCN(C(=O)C3CC3)[C@H]2CO[C@H]2CC[C@@H](c3ccccc3)CC2)N1 (single isomer, unassigned) [Example 9] |
| 100 to 1000 | C[C@@H]1C[C@@]2(COCC(=O)N2)[C@H](Cc2cccc(-c3cc(F)cc(F)c3)c2F)N1C(=O)CC(F)(F)F [Example 84, (1S,3R,5S)-3-methyl-1-({2,3′,5′-trifluoro-[1,1′-biphenyl]-3-yl}methyl)-2-(3,3,3-trifluoropropanoyl)-9-oxa-2,6-diazaspiro[4.5]decan-7-one] |
| < 100 | COCCNC(=O)N1[C@H](C)C[C@@]2(COCC(=O)N2)[C@@H]1CO[C@H]1CC[C@@H](c2ccccc2)CC1 [Example 51, (1R,3R,5S)-N-(2-methoxyethyl)-3-methyl-7-oxo-1-({[(CIS)-4-phenylcyclohexyl]oxy}methyl)-9-oxa-2,6-diazaspiro[4.5]decane-2-carboxamide] |
| > 10000 | C[C@@H]1C[C@@]2(COCC(=O)N2)[C@H](Cc2cccc(-c3cc(F)cc(F)c3)c2F)N1S(C)(=O)=O [Example 93, (1S,3R,5S)-2-methanesulfonyl-3-methyl-1-({2,3′,5′-trifluoro-[1,1′-biphenyl]-3-yl}methyl)-9-oxa-2,6-diazaspiro[4.5]decan-7-one] |
| > 10000 | O=C1N[C@@]2(CCCN(C(=O)[C@H]3C[C@@H](F)C3)[C@@H]2CO[C@H]2CC[C@@H](c3ccccc3)CC2)CCO1 (single isomer, unassigned) [Example 67] |
| > 10000 | COC(=O)N1CCCC2(CCC(=O)N2)C1Cc1cccc(-c2ccccc2)c1 (mixture of isomers) [Example 28, Methyl 6-({[1,1′-biphenyl]-3-yl}methyl)-2-oxo-1,7-diazaspiro[4.5]decane-7-carboxylate] |
| 100 to 1000 | O=C1COCC2(CCN(C(=O)[C@H]3C[C@@H](F)C3)C2Cc2cccc(-c3cc(F)cc(F)c3)c2F)N1 (mixture of isomers) [Example 71, rel-(1S,5S)-2-[(1s,3s)-3-fluorocyclobutanecarbonyl]-1-({2,3′,5′-trifluoro-[1,1′-biphenyl]-3-yl}methyl)-9-oxa-2,6-diazaspiro[4.5]decan-7-one] |
| > 10000 | O=C1COC[C@]2(CCCN(C(=O)C3CC3)[C@@H]2CO[C@H]2CC[C@@H](c3ccccc3)CC2)N1 (single isomer, unassigned) [Example 8] |
| > 10000 | COC(=O)N1CCC[C@]2(CCOC(=O)N2)[C@H]1Cc1cccc(-c2ccccc2)c1 (single isomer, unassigned) [Example 20] |
| < 100 | CCNC(=O)N1[C@H](C)C[C@@]2(COCC(=O)N2)[C@@H]1CO[C@H]1CC[C@@H](c2ccccc2)CC1 [Example 47, (1R,3R,5S)-N-ethyl-3-methyl-7-oxo-1-({[(CIS)-4-phenylcyclohexyl]oxy}methyl)-9-oxa-2,6-diazaspiro[4.5] decane-2-carboxamide] |
| > 10000 | CCNC(=O)N1CCC[C@@]2(CNS(=O)(=O)N2)[C@@H]1Cc1cccc(-c2ccccc2)c1 (single isomer, unassigned) [Example 31] |
| < 100 | C[C@@H]1C[C@@]2(COCC(=O)N2)[C@H](Cc2cccc(-c3cc(F)cc(F)c3)c2F)N1C(=O)[C@H]1C[C@@H](F)C1 [Example 82, (1S,3R,5S)-3-methyl-2-[(1s,3s)-3-fluorocyclobutanecarbonyl]-1-({2,3′,5′-trifluoro-[1,1′-biphenyl]-3-yl}methyl)-9-oxa-2,6-diazaspiro[4.5]decan-7-one] |
| 100 to 1000 | O=C1COC[C@@]2(C[C@@H](C(F)F)N(C(=O)[C@H]3C[C@@H](F)C3)[C@H]2Cc2cccc(-c3cc(F)cc(F)c3)c2F)N1 [Example 80, (1S,3S,5S)-3-(difluoromethyl)-2-[(1s,3s)-3-fluorocyclobutanecarbonyl]-1-({2,3′,5′-trifluoro-[1,1′-biphenyl]-3-yl}methyl)-9-oxa-2,6-diazaspiro[4.5]decan-7-one] |
| > 10000 | COC(=O)N1CCC[C@]2(CCOC(=O)N2)[C@@H]1Cc1cccc(-c2ccccc2)c1 (single isomer, unassigned) [Example 22] |
| > 10000 | CCNC(=O)N1CCC[C@@]2(CCOC(=O)N2)[C@H]1Cc1cccc(-c2ccccc2)c1 (racemic) [Example 25, (Trans)-7-({[1,1′-biphenyl]-3-yl}methyl)-N-ethyl-2-oxo-3-oxa-1,8-diazaspiro[5.5]undecane-8-carboxamide] |
| < 100 | CCNC(=O)N1CCC[C@@]2(CCOC(=O)N2)[C@@H]1CO[C@H]1CC[C@@H](c2ccccc2)CC1 (single isomer, unassigned) [Example 14] |
| 100 to 1000 | COC(=O)N1CCC[C@@]2(COCC(=O)N2)[C@@H]1CO[C@H]1CC[C@@H](c2ccccc2)CC1 (single isomer, unassigned) [Example 6] |
| 100 to 1000 | O=C1COCC2(CCCN(C(=O)C3CC3)C2CO[C@H]2CC[C@@H](c3ccccc3)CC2)N1 (mixture of isomers) [Example 7, (CIS)-8-cyclopropanecarbonyl-7-({[(CIS)-4-phenylcyclohexyl]oxy}methyl)-4-oxa-1,8-diazaspiro[5.5]undecan-2-one] |
